Experimental data taken from EP3807270B1, “NOVEL HETEROARYL HETEROCYCLYL COMPOUNDS FOR THE TREATMENT OF AUTOIMMUNE DISEASE” (F. Hoffmann-La Roche AG, priority 2018, dated 2019).

What follows are compounds tested against T1, hTLR7 (Homo sapiens, UniProt Q9NYK1) (assay: HEK293-Blue-hTLR-7 cells assay (SEAP reporter, R848 stimulation)). Conditions: HEK293-Blue-hTLR7 cells, R848, 20 hrs; read-out: HEK/hTLR7 IC50.
T1 sequence (Q9NYK1 27-1049): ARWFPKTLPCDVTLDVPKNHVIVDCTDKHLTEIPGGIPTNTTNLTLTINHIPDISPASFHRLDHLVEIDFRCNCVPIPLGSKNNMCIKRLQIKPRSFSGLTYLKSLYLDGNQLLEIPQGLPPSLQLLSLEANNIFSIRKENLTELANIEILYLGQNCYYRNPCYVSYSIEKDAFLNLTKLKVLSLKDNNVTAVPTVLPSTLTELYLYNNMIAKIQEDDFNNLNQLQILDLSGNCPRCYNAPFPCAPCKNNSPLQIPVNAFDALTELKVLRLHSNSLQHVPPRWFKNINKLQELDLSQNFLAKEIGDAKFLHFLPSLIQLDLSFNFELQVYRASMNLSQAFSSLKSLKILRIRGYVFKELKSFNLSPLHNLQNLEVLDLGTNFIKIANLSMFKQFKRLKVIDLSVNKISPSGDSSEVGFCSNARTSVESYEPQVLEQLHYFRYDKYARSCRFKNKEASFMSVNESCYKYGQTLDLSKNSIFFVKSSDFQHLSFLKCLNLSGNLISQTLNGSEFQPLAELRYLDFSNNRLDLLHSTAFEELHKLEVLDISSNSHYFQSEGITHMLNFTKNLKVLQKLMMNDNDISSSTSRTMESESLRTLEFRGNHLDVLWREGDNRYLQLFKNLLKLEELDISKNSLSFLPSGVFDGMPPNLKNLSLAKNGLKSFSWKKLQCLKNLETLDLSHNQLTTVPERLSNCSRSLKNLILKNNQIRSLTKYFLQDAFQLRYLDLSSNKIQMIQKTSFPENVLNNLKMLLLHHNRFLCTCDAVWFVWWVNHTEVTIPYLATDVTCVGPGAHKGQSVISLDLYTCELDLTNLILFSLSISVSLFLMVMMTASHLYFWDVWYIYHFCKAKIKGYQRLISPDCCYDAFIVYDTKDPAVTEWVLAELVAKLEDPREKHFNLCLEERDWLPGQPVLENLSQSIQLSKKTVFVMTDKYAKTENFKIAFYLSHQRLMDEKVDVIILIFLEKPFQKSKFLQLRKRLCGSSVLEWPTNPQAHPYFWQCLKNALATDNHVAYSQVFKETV
Assay type: cell-based
Set-up: host or cells: HEK293 (HEK-Blue)
Text: A stable HEK293-Blue-hTLR-7 cell line was purchased from InvivoGen (Cat.#: hkb-htlr7, San Diego, California, USA). These cells were originally designed for studying the stimulation of human TLR7 by monitoring the activation of NF-κB. A SEAP (secreted embryonic alkaline phosphatase) reporter gene was placed under the control of the IFN-β minimal promoter fused to five NF-κB and AP-1-binding sites. The SEAP was induced by activating NF-xB and AP-1 via stimulating HEK-Blue hTT,R7 cells with TLR7 ligands. Therefore, the reporter expression was declined by TLR7 antagonist under the stimulation of a ligand, such as R848 (Resiquimod), for incubation of 20 hrs. The cell culture supernatant SEAP reporter activity was determined using QUANTI-Blue™ kit (Cat.#: rep-qb1, Invivogen, San Diego, Ca, USA) at a wavelength of 640 nm, a detection medium that turns purple or blue in the presence of alkaline phosphatase.
HEK293-Blue-hTLR7 cells were incubated at a density of 250,000-450,000 cells/mL in a volume of 170 µL in a 96-well plate in Dulbecco's Modified Eagle's medium (DMEM) containing 4.5 g/L glucose, 50 U/mL penicillin, […], […], 2 mM L-glutamine, 10% (v/v) heat-inactivated fetal bovine serum with addition of 20 µL test compound in a serial dilution in the presence of final DMSO at 1% and 10 µL of 20uM R848 in above DMEM, perform incubation under 37 °C in a CO2 incubator for 20 hrs. Then 20 µL of the supernatant from each well was incubated with 180 µL Quanti-blue substrate solution at 37 °C for 2 hrs and the absorbance was read at 620-655 nm using a spectrophotometer. The signaling pathway that TLR7 activation leads to downstream NF-xB activation has been widely accepted, and therefore similar reporter assay was modified for evaluating TLR7 antagonist.
C[C@@H]1CN(c2ccc(C#N)c3ncccc23)C[C@H](CN2CCN(c3ncc4c(n3)CNC4)CC2)O1 [Example 11, 5-[(2S,6R)-2-[[4-(6,7-dihydro-5Hpyrrolo[3,4-d]pyrimidin-2-yl)piperazin-1-yl]methyl]-6-methyl-morpholin-4-yl]quinoline-8-carbonitrile] gave an IC50 of 11 nM.
Compound C[C@@H]1CN(c2ccc(C#N)c3ncccc23)C[C@H](CN2CCN(c3ncc4c(n3)CNCC4)CC2)O1 [Example 12, 5-[(2R,6S)-2-methyl-6-[[4-(5,6,7,8-tetrahydropyrido[3,4-d]pyrimidin-2-yl)piperazin-1-yl]methyl]morpholin-4-yl]quinoline-8-carbonitrile] has an IC50 of 11 nM.
C[C@@H]1CN(c2ccc(C#N)c3ncccc23)C[C@H](CN2CCN(c3ccc4c(c3)CNC4)C(CO)C2)O1 (stereo partly drawn) [Example 13, 5-[(2S,6R)-2-[[3-(hydroxymethyl)-4-isoindolin-5-yl-piperazin-1-yl]methyl]-6-methyl-morpholin-4-yl]quinoline-8-carbonitrile] showed an IC50 of 57 nM.
In the case of C[C@@H]1CN(c2ccc(C#N)c3ncccc23)C[C@H](CN2CCN(c3ccc4c(n3)CCNC4)CC2)O1 [Example 14, 5-[(2R,6S)-2-methyl-6-[[4-(5,6,7,8-tetrahydro-1,6-naphthyridin-2-yl)piperazin-1-yl]methyl]morpholin-4-yl]quinoline-8-carbonitrile], the IC50 is reported as 11 nM.
C[C@@H]1CN(c2ccc(C#N)c3ncccc23)C[C@H](CN2CCN(c3ccc4c(c3)CNC4)CC2CO)O1 (stereo partly drawn) [Example 15, 5-[(2S,6R)-2-[[2-(hydroxymethyl)-4-isoindolin-5-yl-piperazin-1-yl]methyl]-6-methyl-morpholin-4-yl]quinoline-8-carbonitrile] gave an IC50 of 73 nM.
In the case of C[C@@H]1CN(c2ccc(C#N)c3ncccc23)C[C@H](CN2CCN(c3ccc4c(c3)CN(CCO)C4)CC2)O1 [Example 16, 5-[(2S,6R)-2-[[4-[2-(2-hydroxyethyl)isoindolin-5-yl]piperazin-1-yl]methyl]-6-methyl-morpholin-4-yl]quinoline-8-carbonitrile], the IC50 is reported as 20 nM.
For C[C@@H]1CN(c2ccc(C#N)c3ncccc23)C[C@H](CN2CCN(c3cnc4c(n3)CCNC4)CC2)O1 [Example 17, 5-[(2R,6S)-2-methyl-6-[[4-(5,6,7,8-tetrahydropyrido[3,4-b]pyrazin-2-yl)piperazin-1-yl]methyl]morpholin-4-yl]quinoline-8-carbonitrile], the IC50 was 11 nM.
C[C@@H]1CN(c2ccc(C#N)c3ncccc23)C[C@H](CN2CCN(c3cc4c(cn3)CNC4)CC2)O1 [Example 18, 5-[(2S,6R)-2-[[4-(2,3-dihydro-1H-pyrrolo[3,4-c]pyridin-6-yl)piperazin-1-yl]methyl]-6-methyl-morpholin-4-yl] quinoline-8-carbonitrile] gave an IC50 of 9 nM.
Compound C[C@@H]1CN(c2ccc(C#N)c3ncccc23)C[C@H](CN2CCN(c3cc4c(cn3)CNCC4)CC2)O1 [Example 19, 5-[(2R,6S)-2-methyl-6-[[4-(5,6,7,8-tetrahydro-2,7-naphthyridin-3-yl)piperazin-1-yl]methyl]morpholin-4-yl]quinoline-8-carbonitrile] has an IC50 of 9 nM.
For C[C@@H]1CN(c2ccc(C#N)c3ncccc23)C[C@H](CN2CCN(c3cc4c(cn3)CCNC4)CC2)O1 [Example 20, 5-[(2R,6S)-2-methyl-6-[[4-(5,6,7,8-tetrahydro-2,6-naphthyridin-3-yl)piperazin-1-yl]methyl]morpholin-4-yl]quinoline-8-carbonitrile], the IC50 was 8 nM.
C[C@@H]1CN(c2ccc(C#N)c3ncccc23)C[C@H](CN2CCN(c3cnc4c(c3)CNCC4)CC2)O1 [Example 21, 5-[(2R,6S)-2-methyl-6-[[4-(5,6,7,8-tetrahydro-1,6-naphthyridin-3-yl)piperazin-1-yl]methyl]morpholin-4-yl]quinoline-8-carbonitrile] was tested, and the IC50 was 11 nM.
In the case of C[C@@H]1CN(c2ccc(C#N)c3ncccc23)C[C@H](CN2CCN(c3ccc4c(c3)C(O)CNC4)CC2)O1 (stereo partly drawn) [Example 22, 5-[(2S,6R)-2-[[4-(4-hydroxy-1,2,3,4-tetrahydroisoquinolin-6-yl)piperazin-1-yl]methyl]-6-methyl-morpholin-4-yl]quinoline-8-carbonitrile], the IC50 is reported as 39 nM.
C[C@@H]1CN(c2ccc(C#N)c3ncccc23)C[C@H](CN2CCN(c3cnc4c(c3)CCNC4)CC2)O1 [Example 23, 5-[(2R,6S)-2-methyl-6-[[4-(5,6,7,8-tetrahydro-1,7-naphthyridin-3-yl)piperazin-1-yl]methyl]morpholin-4-yl]quinoline-8-carbonitrile] showed an IC50 of 59 nM.
Work on C[C@@H]1CN(c2ccc(C#N)c3ncccc23)C[C@H](CN2CCN(c3ccc4c(c3)CCNC4CO)CC2)O1 (stereo partly drawn) [Example 24, 5-[(2S,6R)-2-[[4-[1-(hydroxymethyl)-1,2,3,4-tetrahydroisoquinolin-6-yl]piperazin-1-yl]methyl]-6-methyl-morpholin-4-yl]quinoline-8-carbonitrile] yielded an IC50 of 32 nM.
With C[C@@H]1CN(c2ccc(C#N)c3nccnc23)C[C@H](CN2CCN(c3cnc4c(c3)CNC4)CC2)O1 [Example 25, 8-[(2S,6R)-2-[[4-(6,7-dihydro-5H-pyrrolo[3,4-b]pyridin-3-yl)piperazin-1-yl]methyl]-6-methyl-morpholin-4-yl] quinoxaline-5-carbonitrile] the IC50 was 19 nM.
Compound C[C@@H]1CN(c2ccc(C#N)n3ncc(F)c23)C[C@H](CN2CCN(c3cnc4c(c3)CNC4)CC2)O1 [Example 26, 4-[(2S,6R)-2-[[4-(6,7-dihydro-5H-pyrrolo[3,4-b]pyridin-3-yl)piperazin-1-yl]methyl]-6-methyl-morpholin-4-yl]-3-fluoro-pyrazolo[1,5-a]pyridine-7-carbonitrile] has an IC50 of 39 nM.
Compound CC1NCc2cc(N3CCN(C[C@H]4CN(c5ccc(C#N)c6ncccc56)C[C@@H](C)O4)CC3)ccc21 (stereo partly drawn) [Example 28, 5-[(2R,6S)-2-methyl-6-[[4-(1-methylisoindolin-5-yl)piperazin-1-yl]methyl]morpholin-4-yl]quinoline-8-carbonitrile] has an IC50 of 11 nM.
Compound C[C@@H]1CN(c2ccc(C#N)c3ncccc23)C[C@H](CN2CCN(c3ncc4c(n3)CCNC4)CC2)O1 [Example 29, 5-[(2R,6S)-2-methyl-6-[[4-(5,6,7,8-tetrahydropyrido[4,3-d]pyrimidin-2-yl)piperazin-1-yl]methyl]morpholin-4-yl]quinoline-8-carbonitrile] has an IC50 of 11 nM.
Compound C[C@@H]1CN(c2ccc(C#N)c3ncccc23)C[C@H](CN2CCN(c3ccc4c(n3)CNC4)CC2)O1 [Example 30, 5-[(2S,6R)-2-[[4-(6,7-dihydro-5H-pyrrolo[3,4-b]pyridin-2-yl)piperazin-1-yl]methyl]-6-methyl-morpholin-4-yl] quinoline-8-carbonitrile] has an IC50 of 12 nM.
For C[C@@H]1CN(c2ccc(C#N)c3ncccc23)C[C@H](CN2CCN(c3nc4c(s3)CNCC4)CC2)O1 [Example 31, 5-[(2R,6S)-2-methyl-6-[[4-(4,5,6,7-tetrahydrothiazolo[5,4-c]pyridin-2-yl)piperazin-1-yl]methyl]morpholin-4-yl]quinoline-8-carbonitrile], the IC50 was 11 nM.
C[C@@H]1CN(c2ccc(C#N)c3ncccc23)C[C@H](CN2CCC(Nc3ncc4c(n3)CNC4)C2)O1 (stereo partly drawn) [Example 32, 5-[(2S,6R)-2-[[3-(6,7-dihydro-5H-pyrrolo[3,4-d]pyrimidin-2-ylamino)pyrrolidin-1-yl]methyl]-6-methyl-morpholin-4-yl]quinoline-8-carbonitrile] was tested, and the IC50 was 69 nM.
